# According to patent publication US20180021467A1, “METHOD OF BLOCKING PERCEPTION OF MALODOR” (Monell Chemical Senses Center, priority 2015, published 2018):
# Read-outs that look alike come from different tables or passages of the source.
# Tests used:
# [1] = target: T1, TAAR5 (Homo sapiens, UniProt O14804); test: Antagonist screen of odor library on TAAR5 with agonist TMA (Dual-Glo luciferase assay, Hana3A cells); format: cell-based; design: TAAR open reading frames were amplified from pooled human genomic DNA using Phusion polymerase and subcloned into a pCI expression vector; Rho tag (first 20 residues of human rhodopsin); expressed in transfected cells; host or cells: Hana3A cells; settings: for inhibition at 30 µM: read-out: Percent Inhibition
# T1 sequence (O14804 1-337): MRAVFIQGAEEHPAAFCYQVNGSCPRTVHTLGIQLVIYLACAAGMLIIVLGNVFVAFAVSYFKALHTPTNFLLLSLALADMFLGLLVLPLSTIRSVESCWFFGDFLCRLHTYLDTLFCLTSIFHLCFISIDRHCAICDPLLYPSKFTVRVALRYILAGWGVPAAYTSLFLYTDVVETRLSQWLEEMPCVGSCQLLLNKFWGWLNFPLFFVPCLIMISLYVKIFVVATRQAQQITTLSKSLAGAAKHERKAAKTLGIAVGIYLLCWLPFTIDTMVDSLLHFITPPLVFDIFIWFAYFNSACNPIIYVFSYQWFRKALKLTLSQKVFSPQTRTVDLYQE
# Experimental: We screened a TAAR of interest, TAAR5, with the agonist TMA added at the EC80 concentration, against a proprietary small-molecule library to identify antagonists. TAAR open reading frames were amplified from pooled human genomic DNA using Phusion polymerase and subcloned into a pCI expression vector (Promega) containing the first 20 residues of human rhodopsin (Rho tag). […] Hana3A cells were transfected with 5 ng/well of RTP1S, 5 ng/well of pRL-SV40, 10 ng/well of CRE-luciferase, 2.5 ng/well of M3, and 5 ng/well of odorant receptor. 1M odorant stocks were diluted in DMSO. 24 hours following transfection, transfection media was removed and replaced with the appropriate concentration of odor diluted from the 1M stocks in CD293 (Gibco). Four hours following odor stimulation luminescence was measured using a Synergy 2 plate reader (Biotek). All luminescence values were divided by the Renilla Luciferase activity to control for transfection efficiency in a given well.
# We completed an antagonist screen of a proprietary library of odors, including the 52 odorous compounds identified in FIG. 4 at a concentration of 30 μM.
# [2] = target: T1, TAAR5; test: Dose responses on TAAR5 in luciferase assay (antagonist dose-dependent inhibition with TMA at EC80; TMA dose response with antagonist at IC10, IC30, IC50); format: cell-based; design: TAAR open reading frames were amplified from pooled human genomic DNA using Phusion polymerase and subcloned into a pCI expression vector; Rho tag (first 20 residues of human rhodopsin); expressed in transfected cells; host or cells: Hana3A cells; settings: for IC10 concentration of antagonist: lowest of the three concentrations in FIG. 2; for IC30 concentration of antagonist: middle of the three concentrations in FIG. 2
# Excerpt: We screened a TAAR of interest, TAAR5, with the agonist TMA added at the EC80 concentration, against a proprietary small-molecule library to identify antagonists. TAAR open reading frames were amplified from pooled human genomic DNA using Phusion polymerase and subcloned into a pCI expression vector (Promega) containing the first 20 residues of human rhodopsin (Rho tag). The sequences of the cloned receptors were verified by sequencing (3730xl Sequencer, ABI Biosystems). We used the Dual-Glo™ Luciferase Assay System (Promega) to measure receptor responses as previously described in Trimmer, C. et al 2014 High-throughput Analysis of Mammalian Olfactory Receptors: Measurement of Receptor Activation via Luciferase Activity. Journal of Visualized Experiments, (88). doi:10.3791/51640. Hana3A cells were transfected with 5 ng/well of RTP1S, 5 ng/well of pRL-SV40, 10 ng/well of CRE-luciferase, 2.5 ng/well of M3, and 5 ng/well of odorant receptor. 1M odorant stocks were diluted in DMSO. 24 hours following transfection, transfection media was removed and replaced with the appropriate concentration of odor diluted from the 1M stocks in CD293 (Gibco). Four hours following odor stimulation luminescence was measured using a Synergy 2 plate reader (Biotek). All luminescence values were divided by the Renilla Luciferase activity to control for transfection efficiency in a given well.
# In a secondary experiment, we ran dose dependent inhibition responses for the top twelve antagonists, i.e., the top 12 compounds identified in FIG. 4. TMA was kept at the EC80 (500 μM) and the twelve antagonists were diluted in a dose response with the highest concentration at 1000 μM. The top five candidate compounds, i.e., phenethyl benzoate, trans-2-nonen-1-ol, isoeugenyl phenlacetate, tributyl-2-acetylcitrate, bis(2-methyl-3-furyl)disulfide, were rescreened using an antagonist dose response at 2500 μM. We determined the IC80 values for those five antagonists. Using those IC80 values, we completed a 3-fold dilution dose response of TMA, starting at 3000 μM, in the presence of our five candidate antagonists. […] It was difficult to determine if the five antagonists were competitive or non-competitive inhibitors using the very high IC80 concentrations of the antagonists.
# In another experiment, we evaluated dose responses of TMA in the presence of the antagonist at their IC10, IC30 and IC50 concentrations.
# [3] = tested on: human perception of TMA odor ("fishy"); test: Human perceptual ratings of fishiness of TMA with antagonist or control odor (air-dilution olfactometer); format: in vivo; settings: human subjects, TMA 3 mM, 1 mM, 0.33 mM, odors intensity-balanced to 1 mM TMA
# Experimental: We evaluated the efficacy of the in vitro antagonists on human perception. We asked 10 (FIG. 5A) or 29 (FIG. 5B) subjects to rate how “fishy” and how “pleasant” an odor was. The odors were delivered to the subject using an air-dilution olfactometer (Lundström, J. N., et al., 2010 International Journal of Psychophysiology, 78(2), 179-189; doi:10.1016/j.ijpsycho.2010.07.007) and each trial consisted of one concentration of trimethylamine (either 3 mM, 1 mM, 0.33 mM, or a water blank) combined with either an antagonist or a solvent blank. Subjects used a general labeled magnitude scale to rate how “fishy” the odor smelled and a scale from −10 to +10 to rate the pleasantness.
# The antagonists and control odors were intensity-balanced to match the 1 mM concentration of TMA. Trans-2-nonen-1-ol was diluted in Diethyl phthalate (DEP); TMA was diluted in water with NaOH added; Linalool was diluted in DEP. In all trials subjects received air from jars containing water and DEP so that solvent presence could not be used as a cue to the presence of the test odor.
# [4] = inhibition of TMA/TAAR5 response, test odor at 30 μM, TMA at EC80
# [5] = TAAR5 luciferase, vs TMA, highest of the three concentrations in FIG. 2, read-out: IC50 concentration of antagonist
Molecule,"inhibition at 30 µM [1, 4]",also measured
"O=C(Cc1ccccc1)Cc1ccccc1 [1,3-Diphenyl-2-propanone]",73.1%,
CCCCCCCCCCCCCCO [1-Tetradecanol],54.1%,
"OC1CSC(O)CS1 (stereo not drawn) [2,5-Dihydroxy-1,4-dithiane]",67.9%,
"CC(C=O)Cc1ccc2c(c1)OCO2 (stereo not drawn) [2-Methyl-3-(3,4-methylenedioxyphenyl)-propanal]",50.1%,
C/C=C(\C=O)c1ccccc1 [2-Phenyl-2-butenal],68.9%,
CCCCCCC/C=C/C=O [2-decenal],66.4%,
"CC(C)CCCC(C)CCO (stereo not drawn) [3,7-Dimethyl-1-octanol]",57.1%,
CSCCC=O [3-(Methylthio)propionaldehyde],54.5%,
CCCCCC/C=C/C(C)=O [3-Decen-2-one],72.5%,
C=CCN=C=S [Allyl isothiocyanate],77.4%,
CCCCCC(C=O)=Cc1ccccc1 [Alpha-Amylcinnamaldehyde],75.8%,
"C[C@@]12C=CC[C@H]1[C@@H]1CCC3=CC(=O)CC[C@]3(C)[C@H]1CC2 [Androstadienone, Androsta-4,16-dien-3-one]",76%,
O=C(OCc1ccccc1)c1ccccc1 [Benzyl benzoate],83.9%,
c1ccc(CSSCc2ccccc2)cc1 [Benzyl disulfide],81%,
SCc1ccccc1 [Benzyl mercaptan],75.8%,
O=C(Cc1ccccc1)OCc1ccccc1 [Benzyl phenylacetate],72.7%,
O=C(OCc1ccccc1)c1ccccc1O [Benzyl salicylate],74.2%,
Cc1occc1SSc1ccoc1C [Bis(2-Methyl-3-furyl) disulfide],88.3%,"IC50 [2, 5]: 158 µM; IC10 concentration of antagonist ([2]; TAAR5 luciferase, vs TMA): 31.62 µM; IC30 concentration of antagonist ([2]; TAAR5 luciferase, vs TMA): 77.62 µM"
Cc1ccc(C(C)C)cc1O [Carvacrol],52.2%,
O=CC1CCCCCC1 [Cycloheptanecarbaldehyde],64.4%,
CC1COCc2cc3c(cc21)C(C)(C)C(C)C3(C)C (stereo not drawn) [Galaxolide],71.2%,
CCCCCC=O [Hexanal],69.4%,

Molecule,"inhibition at 30 µM [1, 4]",also measured
O=C1CCCCCCC/C=C/CCCCCCO1 [Isoambrettolide],78.7%,
CC(C)COC(=O)c1ccccc1 [Isobutyl benzoate],63.3%,
C/C=C/c1ccc(OC(=O)Cc2ccccc2)c(OC)c1 [Isoeugenyl phenylacetate],89.1%,"effect on perceived fishy rating of TMA ([3]; listed as Isoeugenyl Phenylacetate): showed a similar pattern; effect on perceived fishy rating of TMA ([3]; listed as isoeugenyl phenylacetate): decreases fishy intensity; IC50 [2]: 703 µM; IC10 concentration of antagonist ([2]; TAAR5 luciferase, vs TMA): 100 µM; IC30 concentration of antagonist ([2]; TAAR5 luciferase, vs TMA): 316.22 µM"
CCCCCCCCCCCC(=O)O [Lauric acid],86%,
COc1ccc2cc(CCC(C)=O)ccc2c1 [Nabumetone],73.8%,
O=C(OCCc1ccccc1)c1ccco1 [Phenethyl 2-furoate],59.6%,
Nc1ccccc1C(=O)OCCc1ccccc1 [Phenethyl anthranilate],92.8%,
O=C(OCCc1ccccc1)c1ccccc1 [Phenethyl benzoate],93.5%,"IC50 [2, 5]: 479 µM; IC10 concentration of antagonist ([2]; TAAR5 luciferase, vs TMA): 50.11 µM; IC30 concentration of antagonist ([2]; TAAR5 luciferase, vs TMA): 251.19 µM"
O=C(Cc1ccccc1)OCCc1ccccc1 [Phenethyl phenylacetate],88.9%,
O=C(OCCc1ccccc1)c1ccccc1O [Phenethyl salicylate],85%,
O=C1CCCCCCCCCCCCCCO1 [Thibetolide],81%,
"CC/C=C/CC/C=C/C=O [Trans, trans-2,6-Nonadienal]",71.4%,
COC(=O)c1ccccc1/N=C/CC(C)CCCC(C)(C)O (stereo not drawn) [aurantiol],79.6%,
OCc1ccccc1 [benzyl alcohol],62.5%,
CC/C=C\CCC=O [cis-4-Heptenal],61.5%,
"CCc1occc(=O)c1O [ethyl maltol, 2-Ethyl-3-hydroxy-4H-pyran-4-one]",72.5%,
CC(C)=CCC/C(C)=C/CO [geraniol],81.3%,
"CC(=O)C1(C)CC2=C(CCCC2(C)C)CC1C (stereo not drawn) [iso E super, isocyclemone E]",69.6%,
"C=CC(C)(O)CCC=C(C)C (stereo not drawn) [linalool, reference compound]",,effect on perceived fishy rating of TMA [3]: no effect on these fishy ratings; effect on perceived fishy rating of TMA ([3]; listed as Linalool): does not; in vitro antagonism ([1]; hTAAR5): did not show in vitro antagonism
CCCCCCCCCCCCCC(=O)O [myristic acid],59.1%,
"O=C1CCCC=CCCCCCCCCCC1 [velvione, 5-Cyclohexadecen-1-one]",76%,
Tributyl-2-Acetylcitrate,,"Percent Inhibition [1, 4]: 87.83%; IC50 [2, 5]: 242 µM; IC10 concentration of antagonist ([2]; TAAR5 luciferase, vs TMA): 74.14 µM; IC30 concentration of antagonist ([2]; TAAR5 luciferase, vs TMA): 194.98 µM"
